Results published in patent publication US4139538A, “Oxazolidinones as therapeutic agents” (priority 1975, dated 1979).

Tests used:
[1] = maximum electric shock test (MES), protection against tonic extensor cramp; type: in vivo, mice
[2] = prolongation of sodium hexobarbitone narcosis; type: in vivo, mice; conditions: for ED (200%): Mus musculus, po, 1 h, mice, sodium hexobarbitone 70 mg/kg i.v., 60 minutes after p.o. administration, extension of the narcosis period to 200%, read-out: Prolongation of narcosis ED200; for effectiveness in prolonging sleep compared with known hypnotics and tranquillizers: versus e.g. chlorzoxazone and meprobamate
[3] = minimum pentetrazole shock test (min PS), protection against clonic cramp; type: in vivo, mice; conditions: Mus musculus, po, 1 h, read-out: Anticonvulsive activity Min PS ED50;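 note: albino NMRI mice, oral dosing, clonic seizures provoked 60 min later by subcutaneous pentetrazole 70 mg/kg, ED50 is the dose protecting half of animals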
in vivo = conditions: mouse, po
[4] = paralysis: loss of the postural and balancing reflexes (lying down); type: in vivo, mice; conditions: for ED50: Mus musculus, po, read-out: Paralysis ED50; for effectiveness in relaxing the muscle system compared with known hypnotics and tranquillizers: versus e.g. chlorzoxazone and meprobamate
[5] = administration of a tablet to a human suffering from motor restlessness, with electroencephalogram; type: in vivo; conditions: 50 mg
Protocol: A tablet produced in accordance with Example 75 consisting of 50 mg. of the active compound according to Example 43 and the equivalent amount of the other ingredients was administered to a human suffering from motor restlessness.

[6] = Mus musculus, po, 1 h; read-out: Anticonvulsive activity MES ED50
[7] = Mus musculus, po, 1 h, read-out: Anticonvulsive activity MES ED50
[8] = mice, 70 mg/kg pentetrazole s.c., 60 minutes after p.o. administration, protection in 50% of the animals
[9] = MES and min PS test models; versus trimethadione and dipropyl acetate
[10] = mice, p.o., lying down in 50% of the animals

| Structure (SMILES) | ED50 [1, 6] | ED (200%) [2] | ED50 [3] | ED50 [1, 7] | LD50 at 168 h (in vivo) | ED50 [4] | ED50 [3, 8] | anticonvulsive effect compared with conventional antiepileptics [1, 9] | ED50 [4, 10] | effectiveness in prolonging sleep compared with known hypnotics and tranquillizers [2] | effectiveness in relaxing the muscle system compared with known hypnotics and tranquillizers [4] | electroencephalogram findings [5] | indications of a shallow sleep phase in the electroencephalogram ([5]; 5 hours after administration) | effect reported by the patient ([5]; within a period of several minutes) |
| --- | --- | --- | --- | --- | --- | --- | --- | --- | --- | --- | --- | --- | --- | --- |
| O=C1NC(=O)C(c2ccccc2)(c2ccccc2)N1 [Diphenylhydantoin, reference compound] | 10 mg/kg | 50 mg/kg |  |  |  |  |  |  |  |  |  |  |  |  |
| CCCC(CCC)C(=O)O [Dipropylacetate, reference compound] |  |  | 450 mg/kg | 185 mg/kg | > 1000 mg/kg | 1000 mg/kg |  |  |  |  |  |  |  |  |
| O=C1NC(C(O)c2ccc(Cl)cc2)CO1 (stereo not drawn) [Example 4, 4-(α-Hydroxy-p-chlorobenzyl)-oxazolidin-2-one] | 125 mg/kg | 160 mg/kg |  |  | > 1000 mg/kg |  | 140 mg/kg | superior | > 1000 mg/kg |  |  |  |  |  |
| CC(O)C1NC(=O)OC1c1ccccc1 (stereo not shown) [Example 5, 4-[1-(1-Hydroxyethyl)]-5-phenyl oxazolidin-2-one] | 75 mg/kg | 510 mg/kg |  |  | > 1000 mg/kg |  | 150 mg/kg | superior | > 1000 mg/kg |  |  |  |  |  |
| CC1(CO)NC(=O)OC1(C)c1ccccc1 (stereo not shown) [Example 6] | 165 mg/kg | 1000 mg/kg |  |  | > 100 mg/kg |  | > 464 mg/kg |  | 1000 mg/kg |  |  |  |  |  |
| CCC(O)(c1ccccc1)C1NC(=O)OC1C (stereo not shown) [Example 18, 4-[-1-(1-Hydroxy-1-phenyl)-propyl]-5-methyl oxazolidin-2-one] | 200 mg/kg | 450 mg/kg |  |  | > 1000 mg/kg |  | 200 mg/kg |  | > 1000 mg/kg |  |  |  |  |  |
| C=CCC(O)(CC=C)C1NC(=O)OC1C (stereo not shown) [Example 34] | 150 mg/kg | 90 mg/kg |  |  | > 1000 mg/kg |  | > 464 mg/kg |  | 1000 mg/kg |  |  |  |  |  |
| CC(C)(O)C1NC(=O)OC1c1ccccc1 (stereo not shown) [Example 37] | 59 mg/kg | 650 mg/kg |  |  | > 1000 mg/kg |  | 130 mg/kg | superior | 1000 mg/kg |  |  |  |  |  |
| CN1C(=O)OC(c2ccccc2)C1C(C)(C)O (stereo not shown) [Example 38] | 165 mg/kg | 115 mg/kg |  |  | > 1000 mg/kg |  | 640 mg/kg |  | 464 mg/kg | distinctly more effective | distinctly more effective |  |  |  |
| C=CCN1C(=O)OC(c2ccccc2)C1C(C)(C)O (stereo not shown) [Example 39] | 145 mg/kg | 130 mg/kg |  |  | 1000 mg/kg |  | > 464 mg/kg |  | > 1000 mg/kg |  |  |  |  |  |
| CCC(O)(CC)C1NC(=O)OC1c1ccccc1 (stereo not shown) [Example 40] | 75 mg/kg | 165 mg/kg |  |  | > 1000 mg/kg |  | 430 mg/kg |  | 1000 mg/kg |  |  |  |  |  |
| CCCC(O)(CCC)C1NC(=O)OC1c1ccccc1 (stereo not shown) [Example 41] | 147 mg/kg | 65 mg/kg |  |  | > 1000 mg/kg |  | > 464 mg/kg |  | > 1000 mg/kg |  |  |  |  |  |
| C=CCC(O)(CC=C)C1NC(=O)OC1c1ccccc1 (stereo not shown) [Example 43] | 25 mg/kg | 15 mg/kg |  |  | 1000 mg/kg |  | > 464 mg/kg |  | 225 mg/kg | distinctly more effective | distinctly more effective | characteristic signs of a sedation with a decrease of effectiveness in the alpha and beta band and a change of the range of main activity to the lower frequency range | clearly increased | muscle relaxing, tiring and ataraktic sedation |
| CCCC(O)(CCC)C1COC(=O)N1 (stereo not shown) [Example 45] | 120 mg/kg | 210 mg/kg |  |  | > 1000 mg/kg |  | 430 mg/kg |  | 1000 mg/kg |  |  |  |  |  |
| O=C1NC(C(O)(c2ccccc2)c2cccc(Cl)c2)CO1 (stereo not shown) [Example 49] | 200 mg/kg | 90 mg/kg |  |  | > 1000 mg/kg |  | > 464 mg/kg |  | > 1000 mg/kg |  |  |  |  |  |
| CCC(O)(c1ccccc1)C1COC(=O)N1 (stereo not shown) [Example 54] | 115 mg/kg | 50 mg/kg |  |  | > 1000 mg/kg |  | 85 mg/kg | superior | 800 mg/kg | distinctly more effective | distinctly more effective |  |  |  |
| C=CCC(O)(c1ccccc1)C1COC(=O)N1 (stereo not shown) [Example 58] | 200 mg/kg | 300 mg/kg |  |  | > 1000 mg/kg |  | 300 mg/kg |  | 1000 mg/kg |  |  |  |  |  |
| CC(O)(c1ccc(Cl)cc1)C1COC(=O)N1 (stereo not shown) [Example 59] | 165 mg/kg | 110 mg/kg |  |  | > 1000 mg/kg |  | > 464 mg/kg |  | > 1000 mg/kg |  |  |  |  |  |
| CCC(O)(c1ccc(Cl)cc1)C1COC(=O)N1 (stereo not shown) [Example 60] | 175 mg/kg | 70 mg/kg |  |  | > 1000 mg/kg |  | > 464 mg/kg |  | 1000 mg/kg |  |  |  |  |  |
| CCC(O)(c1ccccc1)C1COC(=O)N1C (stereo not shown) [Example 64] | 300 mg/kg | 110 mg/kg |  |  | 800 mg/kg |  | > 464 mg/kg |  | 650 mg/kg | distinctly more effective | distinctly more effective |  |  |  |
| CCCC(O)(c1ccccc1)C1COC(=O)N1 (stereo not shown) [Example 65] | 170 mg/kg | 155 mg/kg |  |  | > 1000 mg/kg |  | 175 mg/kg |  | > 1000 mg/kg |  |  |  |  |  |
| CC1(c2ccccc2)OC(=O)NC1CCl (stereo not shown) [Example 67, 4-Chloromethyl-5-methyl-5-phenyl oxazolidin-2-one] |  |  | 55 mg/kg | 93 mg/kg | > 1000 mg/kg | 1000 mg/kg |  | superior |  |  |  |  |  |  |
| O=C1NC(CCl)C(c2ccccc2)O1 (stereo not shown) [Example 72] |  |  | 540 mg/kg | 75 mg/kg | > 1000 mg/kg | > 1000 mg/kg |  |  |  |  |  |  |  |  |
| O=C1NC(CBr)C(c2ccccc2)O1 (stereo not shown) [Example 73] |  |  | 430 mg/kg | 65 mg/kg | > 1000 mg/kg | > 1000 mg/kg |  |  |  |  |  |  |  |  |
| CCCC(C)(COC(N)=O)COC(N)=O [Meprobamate, reference compound] |  |  | 150 mg/kg | 115 mg/kg | 1000 mg/kg | 800 mg/kg |  |  |  |  |  |  |  |  |
| CCC1(c2ccccc2)C(=O)NC(=O)NC1=O [Na-phenocarbital, reference compound] |  |  | 30 mg/kg | 11 mg/kg | 320 mg/kg | 150 mg/kg |  |  |  |  |  |  |  |  |
| CN1C(=O)OC(C)(C)C1=O [Trimethadione, reference compound] | 450 mg/kg | 660 mg/kg |  |  | > 1000 mg/kg |  | 240 mg/kg |  | > 1000 mg/kg |  |  |  |  |  |
